Structures can show the parent of a compound that is named as a salt. Where two headings read alike, the source gives them in different places.
Columns and labels:
Assay type in all cases: in vivo
Acute toxicity in mice = conditions: mouse, in vivo, single dose
Experimental: (§1) (a) Acute toxicity in mice
(§2) Each compound was administered orally, intra-peritoneally, or intravenously as a single dose.

[1] = test system: anoxia induced dysrhythmias; assay: Anoxia induced dysrhythmias in rats, after pre-treatment with a subliminal dosage of aconitine
Experimental: (§3) The anti-dysrhythmic activity of the compounds of the formula (I) was evaluated according to the following pharmacological tests:
anoxia induced dysrhythmias in rats, after pre-treatment with a subliminal dosage of aconitine (combination of the effects of a sympathetic stimulation with those due to perturbations of ionic conductions);

[2] = test system: aconitine induced dysrhythmias; assay: Aconitine induced dysrhythmias in rats
Experimental: as §3
aconitine induced dysrhythmias in rats: this agent has a deeply perturbating effect on the ionic permeability of the membranes;

[3] = test system: maximum stimulation heart rate (FMS); assay: Maximum stimulation heart rate (FMS) in rabbits
Experimental: as §3
maximum stimulation heart rate (FMS)
The FMS, as determined in vivo in rabbits by cardiac stimulation by means of a stimulation probe placed in the left auricular cavity, provides an overall determination of the duration of the refractory period of the conductive routes and of the fibres of the myocardium.

[4] = test system: dysrhythmia on central stimulation; assay: Dysrhythmia on central stimulation in rabbits
Experimental: The anti-dysrhythmic activity of the compounds of the formula (I) was evaluated according to the following pharmacological tests: […]

mice = assay: Acute toxicity in mice; conditions: single dose, behavior observed
Experimental: as §1, §2

[5] = test system: dysrhythmias induced by localized ischemia; assay: Method according to Harris, in dogs (coronary ligation); conditions: 10 mg/kg i.v.
Experimental: as §3
method according to Harris, in dogs: coronary ligation and dysrhythmias induced by localized ischemia.

[6] = test system: ouabaine induced dysrhythmias; assay: Ouabaine induced dysrhythmias in guinea-pigs; conditions: 10-20 mg/kg i.v., guinea-pig
Experimental: as §3
ouabaine induced dysrhythmias in guinea-pigs: at toxic dosages, ouabaine affects transmembrane ionic exchanges; on the other hand, it induces a concomitant sympathetic activation.

[7] = ip, intra-peritoneal, read-out: LD50, i.p.
[8] = intravenous, read-out: LD50, i.v.

SMILES | LD50 (Acute toxicity in mice; [7]) [mg/kg] | LD50 (Acute toxicity in mice; oral, read-out: LD50, p.o.) [mg/kg] | Anoxia Rat ([1]; 10 mg/kg i.v.) | Remarks (acute toxicity) (mice) | other results
CN1CCN(C2=NCC(c3cc4ccccc4o3)C2)CC1 (stereo not shown) [Example 10, 2-(4-Methyl-piperazino)-4-(2-benzofuryl)Δ-1-pyrroline methanesulfonate] | 142 | > 200 | + |  | 
c1ccc2oc(C3CN=C(N4CCCC4)C3)cc2c1 (stereo not shown) [Example 8, 2-Pyrrolidino-4-(2-benzofuryl)Δ-1-pyrroline hydrochloride] | 76 | 200 | + |  | Aconitine Rat ([2]; 10 mg/kg i.v.): +
CCN(CC)C1=NCC(c2cc3ccccc3o2)C1 (stereo not shown) [Example 5, 2-Diethylamino-4-(2-benzofuryl)Δ-1-pyrroline fumarate] | 58 | 180 |  |  | 
NC1=NCC(c2cc3ccccc3o2)C1 (stereo not shown) [Example 1, 2-Amino-4-(2-benzofuryl)Δ-1-pyrroline hydrochloride] | 58 | 115 |  |  | LD50 (Acute toxicity in mice; [8]): 46 mg/kg
c1ccc2oc(C3CN=C(N4CCOCC4)C3)cc2c1 (stereo not shown) [Example 9, 2-Morpholino-4-(2-benzofuryl)Δ-1-pyrroline hydrochloride] | 142 | > 200 |  |  | Anoxia Rat ([1]; i.v., dose not given): 0
CNC1=NCC(c2cc3ccccc3o2)C1 (stereo not shown) [Example 2, 2-Methylamino-4-(2-benzofuryl)Δ-1-pyrroline hydrochloride] | 58 | > 200 |  |  | FMS Rabbit ([3]; 7.5 mg/kg i.v.): +; Aconitine Rat ([2]; 10 mg/kg i.v.): +; Central stimulation Rabbit ([4]; 3 mg/kg i.v.): +
c1ccc(NC2=NCC(c3cc4ccccc4o3)C2)cc1 (stereo not shown) [Example 6, 2-Anilino-4-(2-benzofuryl)Δ-1-pyrroline hydrochloride] | 58 | 110 |  | Hyperesthesia | Anoxia Rat ([1]; i.v., dose not given): 0; FMS Rabbit ([3]; 2.5 mg/kg i.v.): +; Central stimulation Rabbit ([4]; 2.5 mg/kg i.v.): +
c1ccc(CCNC2=NCC(c3cc4ccccc4o3)C2)cc1 (stereo not shown) [Example 7, 2-Phenethylamino-4-(2-benzofuryl)Δ-1-pyrroline hydrochloride] | 98 | > 200 |  | Convulsions | FMS Rabbit ([3]; 2 mg/kg i.v.): +; Aconitine Rat ([2]; 5 mg/kg i.v.): +; Central stimulation Rabbit ([4]; i.v., dose not given): 0
CC(C)NC1=NCC(c2cc3ccccc3o2)C1 (stereo not shown) [Example 3, 2-Isopropylamino-4-(2-benzofuryl)Δ-1-pyrroline hydrochloride] | 58 | 200 | + |  | 
CN(C)C1=NCC(c2cc3ccccc3o2)C1 (stereo not shown) [Example 4, 2-Dimethylamino-4-(2-benzofuryl)Δ-1-pyrroline hydrochloride] |  | 240 |  | convulsions | LD50 (Acute toxicity in mice; [8]): 38.5 mg/kg; Harris Ligation Dog [5]: +; Anoxia Rat ([1]; 10-20 mg/kg i.v.): ++; FMS Rabbit ([3]; 2.5 mg/kg i.v.): +; Ouabaine Cobaye [6]: +; Central stimulation Rabbit ([4]; 5 mg/kg i.v.): ++

Source: patent publication US4443468A, “Benzofuran derivatives, process for their preparation and their therapeutic applications” (Laboratoires Jacques Logeais, priority 1978, dated 1984)
